In US10271540B2, “Medical fluid, a method of treatment and use of the fluid” (XVIVO PERFUSION AB, priority 2010, dated 2019):

Key:
[1] = circulating in blood, metabolized by the liver; cited from earlier work
alpha-1 = test: potency of alpha-1-agonist relative to noradrenaline
Source text: For example, phenylephrine is an alpha-1-agonist and may replace noradrenaline.

Row | Compound | half-life [1] | times less potent than noradrenaline (alpha-1)
1 | CNCC(O)c1ccc(O)c(O)c1 (stereo not drawn) [adrenaline] | approximately a few minutes | –
2 | NC[C@H](O)c1ccc(O)c(O)c1 [noradrenaline] | approximately a few minutes | –
3 | CNC[C@H](O)c1cccc(O)c1 [phenylephrine] | – | about 5 times
